Assays:
[1] = target: Adrenergic receptor alpha-2 (Rattus norvegicus) (UniProt P22086+P19328+P22909); assay: Ratio of binding affinity towards Alpha-2 and alpha-1 adrenergic receptor; type: protein assay
[2] = target: T1, Adrenergic receptor alpha-2 (Rattus norvegicus, UniProt P22086+P19328+P22909); assay: Binding affinity towards alpha-2 adrenergic receptor in rat cortex membrane using [3H]rauwolscine radioligand; type: cell membranes
T1 sequence (P22086 whole entry): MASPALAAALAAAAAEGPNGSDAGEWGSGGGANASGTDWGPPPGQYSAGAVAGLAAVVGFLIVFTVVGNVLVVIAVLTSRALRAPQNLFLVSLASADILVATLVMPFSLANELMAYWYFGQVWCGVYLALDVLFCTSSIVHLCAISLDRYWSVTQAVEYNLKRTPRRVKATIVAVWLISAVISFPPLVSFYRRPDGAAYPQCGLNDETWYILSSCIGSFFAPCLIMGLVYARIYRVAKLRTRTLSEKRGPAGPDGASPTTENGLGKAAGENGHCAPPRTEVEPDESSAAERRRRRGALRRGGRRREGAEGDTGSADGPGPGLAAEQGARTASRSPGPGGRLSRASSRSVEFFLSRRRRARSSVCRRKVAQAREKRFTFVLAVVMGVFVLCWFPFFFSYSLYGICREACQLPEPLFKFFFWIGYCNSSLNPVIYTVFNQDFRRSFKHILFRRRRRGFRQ
T1 sequence (P19328 whole entry): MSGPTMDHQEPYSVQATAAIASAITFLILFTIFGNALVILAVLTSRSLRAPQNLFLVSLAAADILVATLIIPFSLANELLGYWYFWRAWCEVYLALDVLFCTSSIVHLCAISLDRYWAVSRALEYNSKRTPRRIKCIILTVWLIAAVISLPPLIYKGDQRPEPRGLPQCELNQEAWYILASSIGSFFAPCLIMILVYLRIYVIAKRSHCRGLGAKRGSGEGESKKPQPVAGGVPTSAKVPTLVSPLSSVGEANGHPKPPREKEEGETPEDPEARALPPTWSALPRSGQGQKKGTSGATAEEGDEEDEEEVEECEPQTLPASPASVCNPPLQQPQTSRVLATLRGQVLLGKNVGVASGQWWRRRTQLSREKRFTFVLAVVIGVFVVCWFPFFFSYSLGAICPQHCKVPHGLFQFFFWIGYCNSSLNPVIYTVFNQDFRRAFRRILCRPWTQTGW
T1 sequence (P22909 whole entry): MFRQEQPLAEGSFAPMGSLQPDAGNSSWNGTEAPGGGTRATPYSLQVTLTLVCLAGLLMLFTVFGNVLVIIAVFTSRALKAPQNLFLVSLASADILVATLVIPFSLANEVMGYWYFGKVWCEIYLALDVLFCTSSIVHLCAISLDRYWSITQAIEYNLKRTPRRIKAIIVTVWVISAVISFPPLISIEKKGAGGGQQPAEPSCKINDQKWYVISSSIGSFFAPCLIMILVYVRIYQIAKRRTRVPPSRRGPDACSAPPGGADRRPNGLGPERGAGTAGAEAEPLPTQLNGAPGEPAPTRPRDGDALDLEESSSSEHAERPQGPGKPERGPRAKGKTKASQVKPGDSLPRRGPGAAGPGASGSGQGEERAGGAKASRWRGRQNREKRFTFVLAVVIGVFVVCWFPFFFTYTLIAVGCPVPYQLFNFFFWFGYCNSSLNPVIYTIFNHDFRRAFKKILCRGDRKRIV

[3] = target: T2, Adrenergic receptor alpha-1 (Rattus norvegicus, UniProt P15823+P23944+P43140); assay: Binding affinity towards alpha-1 adrenergic receptor in rat cortex membrane using [3H]-prazosin radioligand; type: cell membranes
T2 sequence (P15823 whole entry): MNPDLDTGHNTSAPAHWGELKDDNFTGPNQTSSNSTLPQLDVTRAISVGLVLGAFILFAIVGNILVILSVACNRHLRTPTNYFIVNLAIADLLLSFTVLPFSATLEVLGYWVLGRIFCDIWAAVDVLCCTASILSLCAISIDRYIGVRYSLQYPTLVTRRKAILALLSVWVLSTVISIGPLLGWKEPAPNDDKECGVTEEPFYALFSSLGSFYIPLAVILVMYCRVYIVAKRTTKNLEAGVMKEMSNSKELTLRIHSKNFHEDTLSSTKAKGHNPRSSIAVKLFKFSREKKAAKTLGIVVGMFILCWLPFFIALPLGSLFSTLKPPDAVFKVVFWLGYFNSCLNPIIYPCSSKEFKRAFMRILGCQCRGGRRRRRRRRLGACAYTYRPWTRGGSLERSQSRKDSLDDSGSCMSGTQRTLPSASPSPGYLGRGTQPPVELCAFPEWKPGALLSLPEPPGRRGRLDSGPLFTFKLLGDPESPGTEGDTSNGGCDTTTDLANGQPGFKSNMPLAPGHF
T2 sequence (P23944 whole entry): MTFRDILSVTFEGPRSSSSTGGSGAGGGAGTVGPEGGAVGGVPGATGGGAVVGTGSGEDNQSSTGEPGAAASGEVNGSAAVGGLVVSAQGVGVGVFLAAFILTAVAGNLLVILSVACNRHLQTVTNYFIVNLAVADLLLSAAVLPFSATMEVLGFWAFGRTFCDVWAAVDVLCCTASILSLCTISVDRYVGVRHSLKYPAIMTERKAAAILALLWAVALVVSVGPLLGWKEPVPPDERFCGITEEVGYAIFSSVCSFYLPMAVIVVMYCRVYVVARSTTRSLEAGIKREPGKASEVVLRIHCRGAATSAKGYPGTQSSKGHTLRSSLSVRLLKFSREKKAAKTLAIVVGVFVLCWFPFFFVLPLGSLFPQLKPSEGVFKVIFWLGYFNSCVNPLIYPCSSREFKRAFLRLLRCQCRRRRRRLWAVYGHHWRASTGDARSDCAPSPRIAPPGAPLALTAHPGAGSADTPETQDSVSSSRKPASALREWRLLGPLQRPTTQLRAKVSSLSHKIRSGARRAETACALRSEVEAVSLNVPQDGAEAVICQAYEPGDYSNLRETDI
T2 sequence (P43140 whole entry): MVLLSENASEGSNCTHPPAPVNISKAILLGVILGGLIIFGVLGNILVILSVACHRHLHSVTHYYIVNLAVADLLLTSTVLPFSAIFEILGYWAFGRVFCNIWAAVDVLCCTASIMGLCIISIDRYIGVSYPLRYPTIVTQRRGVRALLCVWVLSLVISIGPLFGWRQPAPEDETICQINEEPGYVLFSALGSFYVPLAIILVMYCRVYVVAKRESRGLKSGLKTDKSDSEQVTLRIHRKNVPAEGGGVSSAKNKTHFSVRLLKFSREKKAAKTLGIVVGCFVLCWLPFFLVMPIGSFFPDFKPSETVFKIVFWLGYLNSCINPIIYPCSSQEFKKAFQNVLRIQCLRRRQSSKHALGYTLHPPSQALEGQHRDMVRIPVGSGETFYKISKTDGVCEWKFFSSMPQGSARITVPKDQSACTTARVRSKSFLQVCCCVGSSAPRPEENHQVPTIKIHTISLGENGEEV

Compound	Ratio [1]	Ki [2]	Ki [3]
O=C(c1ccco1)N1CCN(c2cnn(CCN3CCN(c4ccccc4Cl)CC3)c(=O)c2Cl)CC1	38.4	0.15 µM	0.0039 µM
COc1ccccc1N1CCN(CCCCCCn2nc(N3CCN(C(=O)c4ccco4)CC3)ccc2=O)CC1	5.6	0.1 µM	0.0178 µM
O=C(c1ccco1)N1CCN(c2cnn(CCCCCN3CCN(c4ccccc4Cl)CC3)c(=O)c2Cl)CC1	5	0.018 µM	0.0036 µM
O=C(c1ccco1)N1CCN(c2cnn(CCCCCCN3CCN(c4ccccc4Cl)CC3)c(=O)c2Cl)CC1	11.6	0.066 µM	0.0057 µM
O=C(c1ccco1)N1CCN(c2cnn(CCCN3CCN(c4ccccc4Cl)CC3)c(=O)c2Cl)CC1	24.3	0.085 µM	0.0035 µM
COc1ccccc1OCCN1CCN(c2cnn(CCCCCCN3CCN(c4ccccc4Cl)CC3)c(=O)c2Cl)CC1	6	0.0252 µM	0.0042 µM
O=C(c1ccco1)N1CCN(c2cnn(CCCCCCCN3CCN(c4ccccc4Cl)CC3)c(=O)c2Cl)CC1	3.1	0.0362 µM	0.0115 µM
O=C(c1ccco1)N1CCN(c2ccc(=O)n(CCN3CCN(c4ccccc4Cl)CC3)n2)CC1	1.5	0.0526 µM	0.034 µM
O=C(c1ccco1)N1CCN(c2ccc(=O)n(CCCN3CCN(c4ccccc4Cl)CC3)n2)CC1	20.3	0.26 µM	0.0128 µM
COc1ccccc1OCCN1CCN(c2cnn(CCCN3CCN(c4ccccc4Cl)CC3)c(=O)c2Cl)CC1	7.8	0.219 µM	0.0278 µM
O=C(c1ccco1)N1CCN(c2ccc(=O)n(CCCCCN3CCN(c4ccccc4Cl)CC3)n2)CC1	7.9	0.105 µM	0.0133 µM
COc1ccccc1OCCN1CCN(c2cnn(CCN3CCN(c4ccccc4Cl)CC3)c(=O)c2Cl)CC1	5	0.2923 µM	0.0588 µM
O=C(c1ccco1)N1CCN(c2ccc(=O)n(CCCCCCCN3CCN(c4ccccc4Cl)CC3)n2)CC1	4.2	0.0235 µM	0.0056 µM
COc1ccccc1OCCN1CCN(c2cnn(CCCCN3CCN(c4ccccc4Cl)CC3)c(=O)c2Cl)CC1	4	0.0393 µM	0.01 µM
COc1ccccc1OCCN1CCN(c2ccc(=O)n(CCN3CCN(c4ccccc4Cl)CC3)n2)CC1	20.5	0.37 µM	0.018 µM
COc1ccccc1OCCN1CCN(c2cnn(CCCCCCCCN3CCN(c4ccccc4OC)CC3)c(=O)c2Cl)CC1	6.5	0.0227 µM	0.0035 µM
COc1ccccc1OCCN1CCN(c2ccc(=O)n(CCCCCN3CCN(c4ccccc4OC)CC3)n2)CC1	5.4	0.0698 µM	0.0129 µM
O=C(c1ccco1)N1CCN(c2ccc(=O)n(CCCCCCN3CCN(c4ccccc4Cl)CC3)n2)CC1	4	0.0237 µM	0.0059 µM
COc1ccccc1OCCN1CCN(c2ccc(=O)n(CCCCCCCN3CCN(c4ccccc4Cl)CC3)n2)CC1	9.3	0.139 µM	0.015 µM

More lines, now with the values ahead:

Ratio [1]	Ki [2]	Ki [3]	Compound
		2.395 µM	COc1ccccc1N1CCN(Cn2nc(-c3ccccc3)c(C(C)=O)c(N)c2=O)CC1
		0.147 µM	COc1ccccc1N1CCN(CCn2nc(-c3ccccc3)c3c(C)onc3c2=O)CC1
17	0.245 µM	0.0145 µM	COc1ccccc1OCCN1CCN(c2cnn(CCCN3CCN(c4ccccc4OC)CC3)c(=O)c2Cl)CC1
		0.0945 µM	COc1ccccc1N1CCN(CCn2nc(N3CCN(C(=O)c4ccco4)CC3)ccc2=O)CC1
13.3	0.44 µM	0.033 µM	COc1ccccc1N1CCN(CCn2ncc(N3CCN(C(=O)c4ccco4)CC3)c(Cl)c2=O)CC1
		0.516 µM	COc1ccccc1N1CCN(CC(=O)c2c(-c3ccccc3)nn(C)c(=O)c2N)CC1
33.2	1.261 µM	0.038 µM	COc1ccccc1OCCN1CCN(c2ccc(=O)n(CCN3CCN(c4ccccc4OC)CC3)n2)CC1
		2.308 µM	COc1ccccc1N1CCN(Cn2nc(-c3ccccc3)c3c(C)onc3c2=O)CC1
		0.0467 µM	COc1ccccc1N1CCN(CCCn2nc(-c3ccccc3)c(C(C)=O)c(N)c2=O)CC1
		0.0427 µM	COc1ccc(Cl)cc1N1CCN(CCn2nc(-c3ccccc3)c(C(C)=O)c(N)c2=O)CC1
26	0.87 µM	0.0335 µM	COc1ccccc1N1CCN(CCCCn2ncc(N3CCN(C(=O)c4ccco4)CC3)c(Cl)c2=O)CC1
33.3	0.68 µM	0.0204 µM	COc1ccccc1N1CCN(CCCn2ncc(N3CCN(C(=O)c4ccco4)CC3)c(Cl)c2=O)CC1
5.8	0.255 µM	0.0437 µM	COc1ccccc1N1CCN(CCCCCn2nc(N3CCN(C(=O)c4ccco4)CC3)ccc2=O)CC1
9.8	0.631 µM	0.0645 µM	COc1ccccc1N1CCN(CCCn2nc(N3CCN(C(=O)c4ccco4)CC3)ccc2=O)CC1
		0.0156 µM	COc1ccc(Cl)cc1N1CCN(CCn2nc(-c3ccccc3)c3c(C)onc3c2=O)CC1
		0.0079 µM	COc1ccc(Cl)cc1N1CCN(CCCn2nc(-c3ccccc3)c3c(C)onc3c2=O)CC1

— ChEMBL document CHEMBL1134688, “Synthesis, biological evaluation, and pharmacophore generation of new pyridazinone derivatives with affinity toward alpha(1)- and alpha(2)-adrenoceptors” (J Med Chem, 2001)
